# Measured values published in patent US11986512B2, “Compositions and methods for cancer therapy” (Thetis Pharmaceuticals LLC, priority 2021, dated 2024).
# Tested on: LLC cells
# Assay: Metastatic LLC resection model, perioperative (neo-adjuvant) treatment
# Assay type: in vivo, C57BL/6J male mice
# Settings: 300 ug/kg, SC, Q6D, first dose 2 hours prior to surgery
# Description: To investigate the efficacy of LTD dosing of bis RvE1 Mg-di-lysinate as neo-adjuvant therapy, a study was conducted in the metastatic LLC resection model with treatment initiated in the perioperative window. A total of fifteen (15) C57BL/6J male mice were injected subcutaneously with 1×10e6 living LLC cells. Once tumors reached approximately 1200-1500 mme3 in size, the mice were randomized (n=4-8 per group) to treatment with vehicle (SC, Q6D), bis RvE1 Mg-di-lysinate (300 ug/kg, SC, Q6D), or cisplatin (5 mg/kg, i.p, Q6D), followed by surgical resection of the tumors. The mice in the vehicle and cisplatin groups received an initial dose twenty-four (24) hours prior to surgery, and the mice treated with bis RvE1 Mg-di-lysinate received an initial dose two (2) hours prior to surgery. All mice were sacrificed on day 19 following the death of three mice in the vehicle control group on day 18.
smiles,measurement,setting,value
CC[C@@H](O)/C=C/C=C\C[C@@H](O)/C=C/C=C/C=C\[C@@H](O)CCCC(=O)O [bis RvE1 Mg-di-lysinate],number of lung metastases,"compared to vehicle control and cisplatin, p<0.05",significantly reduced the number of lung metastases
same,number of mice with metastasis in the axillary or inguinal lymph nodes,"compared to vehicle or cisplatin, p<0.01",significantly reduced the number of mice with metastasis in the axillary or inguinal lymph nodes
